Laboratory results reported in patent US20130129675A1, “INTERFERON THERAPIES IN COMBINATION WITH BLOCKADE OF STAT3 ACTIVATION” (BOARD OF REGENTS, THE UNIVERSITY OF TEXAS SYSTEM, priority 2009, published 2013).

What was measured:
[1] = tested on: p-STAT3 (Tyr705) in splenocytes; test: p-STAT3 immunoblotting in splenocytes; format: cell-based, C57BL/6J mice; settings: 2 hours, 5 and 10 μM (FIG. 3B)
Experimental: (§1) Immunoblotting analysis. Murine melanoma B16 cells and splenocytes were used for protein isolation and immunoblotting analysis as described below. B16 cells were seeded at a density of 2×10^6 cells/well in 6-well culture plates and incubated at 37° C., in an atmosphere containing 5% CO2, with the RPMI 1640 medium overnight. Afterward, B16 cells were cultured in the absence or presence of WP1193 (5 μM, 10 μM). After 3.5 hours, the B16 cells were further cultured in the absence or presence of 20 ng/ml of IFN-α for 30 minutes. For the splenocyte preparation, spleens from two 4- to 6-week-old female mice were harvested and disassociated into a single cell suspension. […] The supernatants were collected and quantified for protein content. […]
(§2) Autoradiography of the membranes was performed using Amersham ECL Western blotting detection reagents (Amersham Biosciences). The densities of the protein bands compared with the β-actin protein control were measured with the Image J program provided by the NIH.
(§3) In this experiment, B16 cells and splenocytes isolated from C57BL/6J mice and were incubated with either the medium, medium supplemented with titrated WP1193, medium supplemented with IFN-α, or medium supplemented with both IFN-α and WP1193. […] Semi-quantitative densitometry was used to determine the relative levels of p-STAT3 to STAT3 and β-actin.

[2] = tested on: p-STAT3 (Tyr705) in B16 cells; test: p-STAT3 immunoblotting in B16 cells; format: cell-based, murine; settings: 4 hours, 5 and 10 μM (FIG. 3A)
Experimental: as §1, §2, §3

[3] = tested on: STAT3 and Jak2 phosphorylation in SUP-T1 lymphoma cell line; test: Cytokine signalling in SUP-T1 lymphoma cell line; format: cell-based; settings: SUP-T1 lymphoma cell line (data not shown)
[4] = tested on: STAT3 in HH, HuT78 and MJ CTCL lines; test: STAT3 tyrosine 705 phosphorylation in CTCL lines; format: cell-based, human; settings: serum starved 18 hours, stimuli 30 minutes (FIG. 7)
Experimental: To determine whether IFN alpha and beta were able to selectively phosphorylate STAT3 in other cell types. Studies were conducted in a range of other biologically relevant cell types. In these experiments, cells were grown in media supplemented with 10% FBS, and then serum starved for 18 hours and exposed to various stimuli for 30 minutes.

[5] = tested on: STAT3 in HaCaT keratinocytes; test: pSTAT3 level in HaCaT keratinocytes (MSD chemiluminescent detection); format: cell-based, human
Experimental: Prior to experiments, the DMEM medium was changed to KGM-SFM containing rEGF and bovine pituitary extract for 12 hours, and the cells then exposed to various stimuli for 30 minutes. Cell lysates were extracted in IP lysis buffer were diluted in MSD extraction buffer and 25 uL of the cell lysate containing 10 ug protein was used in the analysis via chemiluminescent detection (MSD Technology). To test for inhibition by WP1220 (WP), cells were pre-incubated with WP1220 prior to the addition of IFN α.

[6] = cited from earlier work
melanoma = settings: cited from earlier work

Row | Molecule | phosphorylation of p-STAT3 [1] | phosphorylation of p-STAT3 [2] | STAT3 and Jak2 phosphorylation [3] | tyrosine phosphorylation of STAT3 (tyrosine 705) [4] | STAT3 activation in keratinocytes [5] | Relative level of pSAT3 ([5]; HaCaT cells, stimuli for 30 minutes) | pSTAT3 stimulation (Table E8) ([5]; SFM + IFN α, no inhibitor) | duration of sustained in vivo expression ([6]; after administration of plasmid) | serum level of IFN-α ([6]; single i.v. hydrodynamic injection of 3 μg pORF plasmid encoding murine IFN-α) [pg/mL] | reduction in the relative relapse risk (melanoma; high-dose type I IFN-α, stage II and III melanoma, adjuvant trials) | melanoma patients with an objective response (melanoma; human, in vivo) [%]
1 | N#C/C(=C\c1cccc(Br)n1)C(=O)N[C@H](c1ccccc1)C1CC1 [WP1193, (S,E)-3-(6-bromopyridin-2-yl)-2-cyano-N-(cyclopropyl(phenyl)methyl)acrylamide] | inhibits the phosphorylation of p-STAT3 | inhibits the phosphorylation of p-STAT3 |  |  |  |  |  |  |  |  | 
2 | IFN-α |  |  | potently induce STAT3 but not Jak2 phosphorylation | selectively stimulates tyrosine phosphorylation of STAT3 | potently induce STAT3 activation | +++++ (+++++=400-500 fold) | +++++ (+++++=10,000-6,000) | more than 30 days | 900 | 25-33% | 15
